The results in this text go back to patent publication US20220256848A1, “NEO-BAVAISOFLAVONE AND COMPOSITIONS THEREOF AND THEIR USE AS PESTICIDES” (priority 2019, published 2022).

Marks after values point to notes of the source that are not given here.

One experiment concerns Rhizoctonia solani. The experiment is described as follows: Microplate hyphae growth assay against Rhizoctonia solani. It counts as cell-based. Particulars: grade x repeats x days of activity /252 x100. On the procedure:
Summary: Diluted purified neo-bavaisoflavone was added to microplate wells and mixed with 50 ul of hyphae suspension and growth of the fungus, starting from blended hyphae, was monitored by plate reader and visual inspection.
2) Add 50 ul of hyphae suspension to the wells of the microplate using a multi-pipette, mix the spore suspension vigorously by hand and decant amount needed for one plate (5 ml) to keep the hyphae well suspended
(§1) 4) Shake the plate for 10 min at 2000 RPM to mix the neo-bavaisoflavone with the hyphae suspension
(§2) 7) Read the plate using the plate reader
(§3) 9) Insert collected plates to a plastic box with cloth cover and put the box in the incubator at 27° C.
1) Screen plate at 3 more dates: 3d, 7d, 14d and 21d following the assay start
2) Calculate the difference of absorbance between each screen and the read at zero time
(§4) 3) Calculate the percentage of growth inhibition of each well at each time point. Use the results of the DMSO treatment of the control plate as 100% growth
(§5) The bioactivity values are in % and reflect the potential of eradicating the target pests.
(§6) b. Pseudomonas syringae, Rhizoctonia solani, Fusarium oxysporum, Pythium aphanidermatum—activity grade (1/2/3) X repeats# X days of activity/252 (maximal value 3×4×21=252)*100

In experiment [1] the test system is Puccinia sorghi. It is filed as cell-based.
For experiment [2], the system named is Puccinia stritiformis (yellow rust). The experiment is described as follows: Field validation in wheat, yellow rust leaf infection intensity (curative). Particulars: wheat field experiments. It is filed as in vivo.
Another experiment concerns Botrytis cinerea. The experiment is described as follows: In-vitro screening against Botrytis cinerea. It is filed as cell-based. Particulars: grade x repeats x days of activity /168 x100.
From the text: as §5
c. Botrytis cinerea—activity grade (1/2/3) X repeats# X days of activity/168 (maximal value 3×4×14=168)*100

The subject of a further experiment is Phytophthora infestans. It is filed as cell-based. Particulars: activity grade x repeats /12 x100.
The subject of a further experiment is Pseudomonas syringae. The experiment is described as follows: Microplate bacterial growth assay against Pseudomonas syringae. Particulars: grade x repeats x days of activity /252 x100. It is filed as cell-based. On the procedure: Summary: Diluted purified neo-bavaisoflavone was added to microplate wells and mixed with […] of frozen bacteria suspension and growth of the bacteria was monitored by visual inspection.
Background: Pseudomonas is a rod-shaped Gram-negative bacterium. Frozen bacteria stock of 60% glycerol was used as an inoculum for the screening experiment.
1) Take a plate with Neo-bavaisoflavone (10 ul) from the −20° C. freezer and thaw it on the bench for at least 20 min
2) Add 80 ul of bacteria suspension with growth medium to each well of the microplate using a multi-pipette
4) Shake the plate for 10 min at 2000 RPM to mix the Neo-bavaisoflavone with the bacteria suspension
6) Insert the plates to a plastic box with cover and put the box in the incubator at 28° C.
1) Screen the microplate at 5 dates: 3, 5, 7, 14 and 21 days after inoculation
2) Use a lamp to visually evaluate the bacterial growth
3) Prepare plates for screening: shake plate at 2000 RPM for 2 min to suspend the bacteria and then centrifuge plate at 1000 RCF for a few seconds
5) Compare the transparency of each well to the transparency of the control wells (wells containing control bactericide or 0.5% DMSO solution)
Write the results on a special form: clear=3 (no growth of bacteria), turbid=1(normal bacterial growth), inconclusive=2 (very low turbidity compared to growth in 0.5% DMSO solution) […]

The test system of experiment [3] is Pectobacterium carotovorum. The experiment is described as follows: In-vitro screening against Pectobacterium carotovorum. Particulars: grade x repeats x days of activity /84 x100. It is filed as cell-based.
From the text: as §5
d. Pectobacterium carotovorum—activity grade (1/2/3) X repeats# X days of activity/84 (maximal value 3×4×7=[…])*100

A further experiment relates to Sclerotinia sclerotiorum. The experiment is described as follows: Microplate hyphae growth assay against Sclerotinia sclerotiorum. It counts as cell-based. The procedure: Summary: Diluted purified neo-bavaisoflavone was added to microplate wells and mixed with 50 ul of hyphae suspension and growth of the fungus starting from blended hyphae was monitored by visual inspection.
Background: Sclerotinia sclerotiorum is a fungus of belonging to the Ascomycetes and it is a soil borne pathogen. It is difficult to produce large amounts of spores of Sclerotinia sclerotiorum, that led to decision to use hyphae in this screening rather than spores for inoculation.
2) Add 50 ul of hyphae suspension to the wells of the microplate, mix the spore suspension vigorously by hand and decant amount needed for one plate (5 ml) to keep the hyphae well suspended
as §1
7) Insert microplates into a plastic box and put the box in the incubator at 21° C.
1) Screen plate at […]: 4, 7, 14 and 21 days after inoculation
2) Use a lamp for visual assessment of compounds effect on fungal growth overtime
4) Compare the hyphal growth of each well to the hyphal growth of the control plate wells (Wells containing active fungicides or 0.5% DMSO solution)
5) Write the results on a special form: clear well=3 (no growth of hyphae), normal hyphal structure=1 (normal growth), inconclusive=2 (solid structure of unexpected type, or partial cover of the area) […]

Another experiment deals with Fusarium oxysporum. The experiment is described as follows: In-vitro screening against Fusarium oxysporum. It counts as cell-based. Particulars: grade x repeats x days of activity /252 x100.
From the text: as §5, §6

Experiment [4] has as its system Puccinia stritiformis (yellow rust). The experiment is described as follows: Uredospores of yellow rust in pustules on field-treated wheat leaves (experiment 108). It is filed as in vivo.
Experiment [5] has as its system Puccinia sorghi. The experiment is described as follows: Puccinia infection of corn seedlings test (growth room). Particulars: corn plants, five independent growth room experiments. It counts as in vivo. From the text: FIGS. 1-5 show effect of neo-bavaisoflavone (NBI) on corn leaf infection by Puccinia sorghi in five independent experiments, determined as leaf % covered by the fungus. *—p-value <0.05, **—p-value is <0.01, *** —p-value is <0.001. Signum—A reference fungicide containing 26.7% w/w boscalid and 6.7% w/w pyraclostrobin (BASF®). Fl, Formulation 1; F2, Formulation 2—see Example 5. ppm—parts per million.
In order to assist the compound dissolution to final working concentration and its spread over the sprayed surface first dry weighed Neo-bavaisoflavone was dissolved in dimethyl-sulfoxide solvent with 1:9 ratio and then brought up to the final volume used for the validation with double distilled water. Before spraying, non-ionic detergent tween 20 was added to final concentration of 0.05%.
In order to assist the compound dissolution to final working concentration and its spread over the sprayed surface first dry weighed Neo-bavaisoflavone was dissolved in absolute ethanol with 1:8 ratio, sonicated for 5 mins and then another part of non-ionic detergent tween 20 was added for formulation finalization. Before spraying, additional amount of 0.05% tween 20 was added (disregarding amount of tween 20 added before).
Protocol name: Puccinia infection of corn seedlings test
General description: inoculation on corn, collection, preparation of spore suspension and material activity study, of Puccinia sorghi.
• Use 8 days old seedlings prepared as explained above • Prepare treatment for spraying—about 1 ml for each plant • Add Tween 20 up to 0.05% to the treatments • Spray treatment on to the leaves till full saturation (use a spray bottle) and let dry in the growth room • Repeat spray on the second day and let dry • On the second day (after about 4 hours from the treatment spray) inoculate plants using the Puccinia spore suspension • Use spraying bottle to spray about 1 ml (till full saturation) of the spore suspension on to the leaves of 9 days old corn seedlings • Put the pots with the inoculated seedlings in a dark moist chamber with heated water at the bottom. […]

In another experiment the test system is Puccinia triticina. The experiment is described as follows: Puccinia triticina infected wheat, growth room under controlled temperature. It counts as in vivo. Particulars: 200 ppm. From the text: Mean of 3 independent replicates is presented. ** means that p-value is <0.01. Formulation 1 see “Formulation preparation for in-planta validation” below.
We conducted 3 independent experiments in greenhouse where we estimated neo-bavaisoflavone's (NBI) potential to prevent and control Puccinia triticina in wheat plants (FIG. 6). Each bar in FIG. 6 represents average of four replicates per treatment. Neo-bavaisoflavone controlled the leaf rust with the following efficacies: between 30% to 50% at 200 ppm and between 30% to 40% at 400 ppm. One additional experiment was conducted under controlled temperature in growth room conditions (FIG. 7) where neo-bavaisoflavone controlled the wheat leaf rust with the efficacy up to 40% at 200 ppm.

For a further experiment, the system named is Spodoptera litoralis. The experiment is described as follows: In-vitro screening matrix, Spodoptera litoralis.
From the text: as §5

A further experiment relates to Mizus Persicae. The experiment is described as follows: In-vitro screening matrix, Mizus Persicae.
From the text: as §5

A further experiment relates to Pythium aphanidermatum. The experiment is described as follows: Microplate zoospore growth assay against Pythium aphanidermatum. It is filed as cell-based. Particulars: grade x repeats x days of activity /252 x100. On the procedure: Summary: Diluted purified neo-bavaisoflavone was added to microplate wells and mixed with 50 ul of zoospores in PDBC suspension and the growth of the fungus, starting from zoospores, was monitored by plate reader and visual inspection
2) Add 50 ul of zoospore suspension inoculum to the wells of the microplate using a multi-pipette. Mix the spore suspension vigorously by hand and decant amount needed for one plate (5 ml) to keep the zoospores well suspended
as §1, §2, §3
1) Read out the plate at 3 more dates: 3d, 7d, 14d and 21d following the assay start
2) Calculate the difference of absorbance between each readout and the readout at zero time
as §4
4) Prepare a table of the results of hits that were repeated in all 4 repeats. Set a column for each time point.
as §5
b. […]

The mark [6] stands for this setting: Day 0 after field treatment, ±SE, experiment 108.
The mark [7] stands for this setting: Day 7 after field treatment, only one case, no replicates.

As to `CC(C)=CCc1cc(-c2coc3cc(O)ccc3c2=O)ccc1O` [Neo-bavaisoflavone], the “Relative Activity value (%)” value in the experiment with Rhizoctonia solani amounted to 75%; in the experiment with Puccinia sorghi [1], 75%; in the experiment on Botrytis cinerea, 0%; in the experiment with Phytophthora infestans, 0%; in the experiment on Pseudomonas syringae, 100%; in experiment [3], 0%. The “Relative Activity value (%)” value was 17% in the experiment with Sclerotinia sclerotiorum; 0% in the experiment on Fusarium oxysporum; 0% in the experiment with Spodoptera litoralis; 0% with Mizus Persicae; 75% in the experiment with Pythium aphanidermatum. Besides, the “relative leaf area covered by the fungi” value in experiment [2] was “significantly reduced”. The “Collapsed spores (Percent)” value in [4] (setting [6]) stood at 36.8 ± 13.03%; in [4] (setting [7]), 1.9%. Besides, the “Number of collapsed spores (No./pustule)” value worked out at 4.8 ± 2.03 No./pustule in experiment [4] (setting [6]) and 0.8 No./pustule in [4] (setting [7]). For the same compound, the values for the Number of uredospores/pustule in experiment [4] (setting [6]) and in [4] (setting [7]) were 14.8 ± 3.37 No and 6.5* No, respectively. Further, the “average efficacy in preventing and controlling Puccinia sorghi” value is reported as 87.39% with Puccinia sorghi [5] (200 ppm), 91.94% in the experiment on Puccinia sorghi [5] (400 ppm) and 94.07% with Puccinia sorghi [5] (800 ppm). Besides, the “efficacy of wheat leaf rust control” value in the experiment on Puccinia triticina is recorded as “up to 40%”.
